In brackets after ≈: the same amount, converted by molar mass.
Legend:
Assay type in all cases: functional
[1] = system: Aspergillus niger; assay: Antifungal activity against Aspergillus niger MTCC 282 after 72 hr; conditions: MTCC 282, 72 h
[2] = system: Aspergillus clavatus; assay: Antifungal activity against Aspergillus clavatus MTCC 1323 after 72 hr; conditions: MTCC 1323, 72 h
[3] = system: Escherichia coli; assay: Antibacterial activity against Escherichia coli MTCC 443 after 24 to 48 hr by serial broth dilution method
[4] = system: Pseudomonas aeruginosa; assay: Antibacterial activity against Pseudomonas aeruginosa MTCC 1688 after 24 to 48 hr by serial broth dilution method
[5] = system: Streptococcus pyogenes; assay: Antibacterial activity against Streptococcus pyogenes MTCC 442 after 24 to 48 hr by serial broth dilution method
[6] = system: Staphylococcus aureus; assay: Antibacterial activity against Staphylococcus aureus MTCC 96 after 24 to 48 hr by serial broth dilution method
[7] = system: Candida albicans; assay: Antifungal activity against Candida albicans MTCC 227 after 72 hr; conditions: MTCC 227, 72 h

| Structure (SMILES) | MIC99 [1] | MIC99 [2] | MIC99 [3] | MIC99 [4] | MIC99 [5] | MIC99 [6] | MIC99 [7] |
| --- | --- | --- | --- | --- | --- | --- | --- |
| O=C(Nn1c(S)nnc1-c1cccc2ccccc12)c1cccc([N+](=O)[O-])c1 | 200 µg/mL (≈ 511 µM) | 100 µg/mL (≈ 255 µM) | 100 µg/mL (≈ 255 µM) | 100 µg/mL (≈ 255 µM) | 500 µg/mL (≈ 1280 µM) | 100 µg/mL (≈ 255 µM) | 200 µg/mL (≈ 511 µM) |
| O=C(Nn1c(S)nnc1-c1cccc2ccccc12)c1ccc(O)cc1 | 500 µg/mL (≈ 1380 µM) | 500 µg/mL (≈ 1380 µM) | 250 µg/mL (≈ 690 µM) | 100 µg/mL (≈ 276 µM) | 500 µg/mL (≈ 1380 µM) | 100 µg/mL (≈ 276 µM) | 500 µg/mL (≈ 1380 µM) |
| O=C(Nn1c(S)nnc1-c1cccc2ccccc12)c1ccc([N+](=O)[O-])cc1 | 50 µg/mL (≈ 128 µM) | 50 µg/mL (≈ 128 µM) | 50 µg/mL (≈ 128 µM) | 25 µg/mL (≈ 63.9 µM) | 500 µg/mL (≈ 1280 µM) | 250 µg/mL (≈ 639 µM) | 50 µg/mL (≈ 128 µM) |
| O=C(Nn1c(S)nnc1-c1cccc2ccccc12)c1ccc2cccc([N+](=O)[O-])c2c1 | 100 µg/mL (≈ 227 µM) | 50 µg/mL (≈ 113 µM) | 200 µg/mL (≈ 453 µM) | 100 µg/mL (≈ 227 µM) | 250 µg/mL (≈ 566 µM) | 250 µg/mL (≈ 566 µM) | 100 µg/mL (≈ 227 µM) |
| O=C(COc1ccc2ccccc2c1)Nn1c(S)nnc1-c1cccc2ccccc12 | 500 µg/mL (≈ 1170 µM) | 500 µg/mL (≈ 1170 µM) | 100 µg/mL (≈ 234 µM) | 250 µg/mL (≈ 586 µM) | 500 µg/mL (≈ 1170 µM) | 250 µg/mL (≈ 586 µM) | 500 µg/mL (≈ 1170 µM) |
| CC1(C)S[C@@H]2[C@H](NC(=O)[C@H](N)c3ccccc3)C(=O)N2[C@H]1C(=O)O [AMPICILLIN] |  |  | 100 µg/mL (≈ 286 µM) | 100 µg/mL (≈ 286 µM) | 100 µg/mL (≈ 286 µM) | 250 µg/mL (≈ 715 µM) |  |
| COC1=CC(=O)C[C@@H](C)[C@]12Oc1c(Cl)c(OC)cc(OC)c1C2=O [GRISEOFULVIN] | 100 µg/mL (≈ 283 µM) | 100 µg/mL (≈ 283 µM) |  |  |  |  | 500 µg/mL (≈ 1420 µM) |

Results, then the compound that gave them:

| MIC99 [1] | MIC99 [2] | MIC99 [3] | MIC99 [4] | MIC99 [5] | MIC99 [6] | MIC99 [7] | Structure (SMILES) |
| --- | --- | --- | --- | --- | --- | --- | --- |
| 1000 µg/mL (≈ 2890 µM) | 1000 µg/mL (≈ 2890 µM) | 500 µg/mL (≈ 1440 µM) | 50 µg/mL (≈ 144 µM) | 1000 µg/mL (≈ 2890 µM) | 500 µg/mL (≈ 1440 µM) | 1000 µg/mL (≈ 2890 µM) | O=C(Nn1c(S)nnc1-c1cccc2ccccc12)c1ccccc1 |
| 500 µg/mL (≈ 1390 µM) | 100 µg/mL (≈ 277 µM) | 100 µg/mL (≈ 277 µM) | 100 µg/mL (≈ 277 µM) | 100 µg/mL (≈ 277 µM) | 500 µg/mL (≈ 1390 µM) | 200 µg/mL (≈ 555 µM) | Cc1ccccc1C(=O)Nn1c(S)nnc1-c1cccc2ccccc12 |
| 200 µg/mL (≈ 531 µM) | 500 µg/mL (≈ 1330 µM) | 100 µg/mL (≈ 266 µM) | 250 µg/mL (≈ 664 µM) | 500 µg/mL (≈ 1330 µM) | 250 µg/mL (≈ 664 µM) | 200 µg/mL (≈ 531 µM) | COc1ccccc1C(=O)Nn1c(S)nnc1-c1cccc2ccccc12 |
| 500 µg/mL (≈ 1390 µM) | 500 µg/mL (≈ 1390 µM) | 500 µg/mL (≈ 1390 µM) | 500 µg/mL (≈ 1390 µM) | 200 µg/mL (≈ 555 µM) | 250 µg/mL (≈ 694 µM) | 1000 µg/mL (≈ 2770 µM) | O=C(Cc1ccccc1)Nn1c(S)nnc1-c1cccc2ccccc12 |
| 500 µg/mL (≈ 1380 µM) | 200 µg/mL (≈ 552 µM) | 1000 µg/mL (≈ 2760 µM) | 1000 µg/mL (≈ 2760 µM) | 500 µg/mL (≈ 1380 µM) | 500 µg/mL (≈ 1380 µM) | 500 µg/mL (≈ 1380 µM) | O=C(Nn1c(S)nnc1-c1cccc2ccccc12)c1ccccc1O |
| 100 µg/mL (≈ 263 µM) | 250 µg/mL (≈ 656 µM) | 50 µg/mL (≈ 131 µM) | 100 µg/mL (≈ 263 µM) | 500 µg/mL (≈ 1310 µM) | 500 µg/mL (≈ 1310 µM) | 50 µg/mL (≈ 131 µM) | O=C(Nn1c(S)nnc1-c1cccc2ccccc12)c1ccccc1Cl |
| 50 µg/mL (≈ 131 µM) | 50 µg/mL (≈ 131 µM) | 25 µg/mL (≈ 65.6 µM) | 250 µg/mL (≈ 656 µM) | 100 µg/mL (≈ 263 µM) | 250 µg/mL (≈ 656 µM) | 50 µg/mL (≈ 131 µM) | O=C(Nn1c(S)nnc1-c1cccc2ccccc12)c1cccc(Cl)c1 |

Reference: ChEMBL document CHEMBL3045867, “Synthesis, characterization, and antimicrobial evaluation of novel naphthalene-based 1,2,4-triazoles” (2012)
